Test systems include MDA-MB-231 breast; LOX IMVI melanoma; NCI-H522 lung; SNB-19 CNS; M14 melanoma; MOLT-4 leukemia; K-562 leukemia; SK-MEL-5 melanoma; KM12 colon; SK-OV-3 ovarian.
What all share (assay): inhibition of tumour cell growth, NCI panel, 48 h

This is an account of results in PubChem BioAssay (NCI).

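Briefly, cells in 96-well plates were exposed to five compound concentrations for 48 h, and endpoints were estimated by linear interpolation. GI50 marks 50% less growth. TGI denotes the concentration required for complete inhibition of growth.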 Bounds are passed on as bounds.

Regarding `COC(=O)C1=Nc2ccc(F)cc2/C1=C/c1sc(=S)[nH]c1O`, the GI50 in the experiment on MDA-MB-231 breast is 0.358 µM; in the experiment on LOX IMVI melanoma, 0.0943 µM; in the experiment with NCI-H522 lung, 0.0363 µM; with SNB-19 CNS it was 0.179 µM; with M14 melanoma, 0.0543 µM; with MOLT-4 leukemia, 0.236 µM. The GI50 in the experiment with K-562 leukemia is 0.045 µM; with SK-MEL-5 melanoma it was 0.131 µM; in the experiment on KM12 colon, 0.0734 µM; in the experiment on SK-OV-3 ovarian, 0.513 µM. The TGI in the experiment with MDA-MB-231 breast was 4.26 µM; in the experiment with LOX IMVI melanoma it was greater than 32.6 µM; with NCI-H522 lung, 1.09 µM; in the experiment with SNB-19 CNS, greater than 52.9 µM; with M14 melanoma, greater than 100 µM; in the experiment with MOLT-4 leukemia, greater than 100 µM. For the same compound, the TGI is greater than 100 µM in the experiment on K-562 leukemia, 0.745 µM in the experiment with SK-MEL-5 melanoma, 10.7 µM in the experiment with KM12 colon and 31.3 µM in the experiment on SK-OV-3 ovarian.

As to `Cc1cc2c(cc1C)[n+](=O)c(C(=O)/C=C/c1ccccc1[N+](=O)[O-])c(C)n2[O-]`, the TGI was greater than 100 µM with MDA-MB-231 breast; greater than 100 µM in the experiment on LOX IMVI melanoma; 57.6 µM in the experiment with NCI-H522 lung; 42.3 µM in the experiment with SNB-19 CNS; greater than 100 µM with M14 melanoma; greater than 100 µM in the experiment on MOLT-4 leukemia. Also, the TGI was greater than 100 µM in the experiment on K-562 leukemia, greater than 100 µM in the experiment on SK-MEL-5 melanoma, greater than 100 µM with KM12 colon and greater than 68.6 µM with SK-OV-3 ovarian.

In the case of `Cc1ccc(C(=O)N2C/C(=C/c3ccccc3)C(=O)/C(=C/c3ccccc3)C2)cc1`, the GI50 was 4.61 µM in the experiment on MDA-MB-231 breast; 1.16 µM with LOX IMVI melanoma; 11.6 µM with NCI-H522 lung; 9.51 µM with SNB-19 CNS; 3.85 µM in the experiment on M14 melanoma; 4.98 µM with MOLT-4 leukemia. The GI50 was 1.66 µM in the experiment on K-562 leukemia, 3.3 µM with SK-MEL-5 melanoma, 1.43 µM with KM12 colon and 8.64 µM in the experiment on SK-OV-3 ovarian. Moreover, the TGI was greater than 77.2 µM in the experiment with MDA-MB-231 breast; 3.08 µM with LOX IMVI melanoma; greater than 56 µM with NCI-H522 lung; greater than 100 µM in the experiment with SNB-19 CNS; greater than 92.1 µM with M14 melanoma; greater than 100 µM in the experiment with MOLT-4 leukemia. In addition, the TGI in the experiment on K-562 leukemia was greater than 100 µM; in the experiment on SK-MEL-5 melanoma it was greater than 31.6 µM; in the experiment with KM12 colon, 6.94 µM; in the experiment with SK-OV-3 ovarian it was greater than 100 µM.

As to `C=CC[PH+](c1ccccc1)c1ccccc1.C=CC[PH+](c1ccccc1)c1ccccc1.[Pt+2].[S-]c1ncccn1.[S-]c1ncccn1`, the GI50 was 5.68 µM in the experiment on MDA-MB-231 breast; 2.18 µM with LOX IMVI melanoma; 2.17 µM in the experiment with NCI-H522 lung; 58.9 µM with SNB-19 CNS; 5.67 µM with M14 melanoma; 3.26 µM in the experiment on MOLT-4 leukemia. In addition, the GI50 in the experiment with K-562 leukemia is 2.99 µM; with SK-MEL-5 melanoma, 17.3 µM; with KM12 colon, 28.4 µM; in the experiment with SK-OV-3 ovarian, greater than 100 µM. For the same compound, the TGI in the experiment on MDA-MB-231 breast is 52.8 µM; with LOX IMVI melanoma, 5.91 µM; with NCI-H522 lung it was 5.78 µM; in the experiment with SNB-19 CNS it was greater than 100 µM; in the experiment with M14 melanoma, 31.9 µM; with MOLT-4 leukemia, greater than 100 µM. For the same compound, the TGI was greater than 100 µM in the experiment with K-562 leukemia, 38.5 µM in the experiment with SK-MEL-5 melanoma, greater than 100 µM in the experiment on KM12 colon and greater than 100 µM with SK-OV-3 ovarian.

For `CCc1ccc(C2=NN(c3ccc(S(C)(=O)=O)cc3)C(=O)CC2)cc1`, the GI50 with MDA-MB-231 breast is 3.32 µM; in the experiment with LOX IMVI melanoma, 2.93 µM; in the experiment on NCI-H522 lung, 0.339 µM; with SNB-19 CNS, 8.82 µM; in the experiment with M14 melanoma it was 0.639 µM; with MOLT-4 leukemia, 1.53 µM. For the same compound, the GI50 was 0.488 µM with K-562 leukemia, 1.64 µM in the experiment on SK-MEL-5 melanoma, 0.817 µM with KM12 colon and 2.34 µM in the experiment on SK-OV-3 ovarian. Moreover, the TGI in the experiment with MDA-MB-231 breast was greater than 60.2 µM; in the experiment on LOX IMVI melanoma, greater than 100 µM; with NCI-H522 lung it was 8.37 µM; in the experiment with SNB-19 CNS, greater than 100 µM; in the experiment on M14 melanoma, greater than 100 µM; with MOLT-4 leukemia, 17.5 µM. The TGI was greater than 100 µM in the experiment on K-562 leukemia, 11.1 µM in the experiment with SK-MEL-5 melanoma, greater than 96.1 µM with KM12 colon and 12.4 µM in the experiment on SK-OV-3 ovarian.

On to `Cn1c(CC(O)c2nc3ccccc3n2C)nc2ccccc21` (stereo not given), for which the TGI in the experiment with MDA-MB-231 breast was greater than 53.7 µM; in the experiment on LOX IMVI melanoma it was greater than 47.7 µM; with NCI-H522 lung, greater than 8.21 µM; in the experiment on SNB-19 CNS it was greater than 87.7 µM; with M14 melanoma it was greater than 49.8 µM; with MOLT-4 leukemia, greater than 27.9 µM. In addition, the TGI is greater than 47.9 µM in the experiment on K-562 leukemia, greater than 42.8 µM in the experiment with SK-MEL-5 melanoma, greater than 100 µM with KM12 colon and greater than 45.2 µM in the experiment with SK-OV-3 ovarian.

For the compound `C=CC(C)(O)CCC1C(=C)C(O)CC2C(C)(C)CCCC12C` (stereo not given), the TGI with MDA-MB-231 breast came out at 31.8 µM; in the experiment on LOX IMVI melanoma it was 38.7 µM; in the experiment on NCI-H522 lung it was 34.1 µM; in the experiment with SNB-19 CNS, 35.6 µM; in the experiment with M14 melanoma, 30 µM; with MOLT-4 leukemia, 31.2 µM. For the same compound, the TGI in the experiment on K-562 leukemia was 33.2 µM; in the experiment with SK-MEL-5 melanoma it was 29.5 µM; with KM12 colon it was 52.1 µM; in the experiment with SK-OV-3 ovarian it was greater than 100 µM.

As for `COc1cc2c3c(n(CCCN4CCSCC4)c(=O)c2cc1OC)-c1cc2c(cc1C3=O)OCO2`, the GI50 with MDA-MB-231 breast was 25.2 µM; in the experiment with LOX IMVI melanoma, greater than 100 µM; in the experiment with NCI-H522 lung, 19.9 µM; in the experiment with SNB-19 CNS it was 53.8 µM; in the experiment on M14 melanoma it was greater than 100 µM; in the experiment with MOLT-4 leukemia, 0.632 µM. Also, the GI50 in the experiment on K-562 leukemia is 20.2 µM; in the experiment with SK-MEL-5 melanoma, greater than 100 µM; in the experiment on KM12 colon, greater than 100 µM; with SK-OV-3 ovarian it was 88.1 µM. Besides, the TGI in the experiment with MDA-MB-231 breast is 89.9 µM; in the experiment on LOX IMVI melanoma, greater than 100 µM; in the experiment on NCI-H522 lung it was 65.4 µM; in the experiment with SNB-19 CNS, greater than 100 µM; with M14 melanoma, greater than 100 µM; with MOLT-4 leukemia, 13.4 µM. The TGI with K-562 leukemia was 47.8 µM; with SK-MEL-5 melanoma it was greater than 100 µM; in the experiment with KM12 colon, greater than 100 µM; with SK-OV-3 ovarian it was greater than 100 µM.

Regarding `Cc1ccc(O)cc1Nc1ccnc2cc(-c3ccccn3)ccc12`, the GI50 in the experiment with MDA-MB-231 breast was 1.25 µM; with LOX IMVI melanoma it was 2.26 µM; with NCI-H522 lung, 0.931 µM; with SNB-19 CNS, 4.54 µM; with M14 melanoma, 3.24 µM; with MOLT-4 leukemia, 4.18 µM. Further, the GI50 was 0.0973 µM in the experiment on K-562 leukemia, 3.6 µM with SK-MEL-5 melanoma, 3.01 µM in the experiment on KM12 colon and 1.98 µM in the experiment with SK-OV-3 ovarian. The TGI with MDA-MB-231 breast worked out at 5.6 µM; with LOX IMVI melanoma, 5.71 µM; in the experiment with NCI-H522 lung it was 4.6 µM; in the experiment with SNB-19 CNS, 18.3 µM; with M14 melanoma, 7.51 µM; with MOLT-4 leukemia, 10.7 µM. Besides, the TGI with K-562 leukemia is 2.52 µM; in the experiment with SK-MEL-5 melanoma, 7.14 µM; with KM12 colon it was 6.57 µM; with SK-OV-3 ovarian it was 6.3 µM.
